Data taken from patent US9556165B2 (priority 2012, dated 2017).
≈ marks a conversion by molar mass, not a printed value. Read-outs that look alike come from different tables or passages of the source.

Experiments:
Format in all cases: cell-based
E. coli J62-TEM-3 = test: MIC determination, broth microdilution (CLSI); conditions: Escherichia coli, J62TEM3, read-out: MIC strain 18 (E. coli J62-TEM-3), strain 18; broth microdilution
E. coli J62 = test: MIC determination, broth microdilution (CLSI); conditions: broth microdilution; for MIC: Escherichia coli, J62, strain 17, read-out: MIC strain 17 (E. coli J62)
S. aureus 133 = test: MIC determination, broth microdilution (CLSI)
E. cloacae 34654 = test: MIC determination, broth microdilution (CLSI); conditions: for MIC: Enterobacter cloacae, 34654, strain 3
E. coli ATCC25922 = test: MIC determination, broth microdilution (CLSI); conditions: for MIC: Escherichia coli, ATCC25922, strain 1
H. influenzae ATCC 49247 = test: MIC determination, broth microdilution (CLSI); conditions: Haemophilus influenzae, ATCC49247, strain 12; broth microdilution; read-out: MIC strain 12 (H. influenzae ATCC 49247)
Bacteria = test: MIC determination in combination with β-lactamase inhibitors (constant 4 μg/mL)
[1] = test system: P. aeruginosa 2297-con (AmpC derepressed); test: MIC determination, broth microdilution (CLSI); conditions: for MIC: Pseudomonas aeruginosa, read-out: strain 8 MIC, strain 8
M. morganii 126/3048 = test: MIC determination, broth microdilution (CLSI); conditions: Morganella morganii, 126/3048, strain 5
B. fragilis 6688 = test: MIC determination, broth microdilution (CLSI); conditions: Bacteroides fragilis, 6688, strain 15; broth microdilution; read-out: MIC strain 15 (B. fragilis 6688)
K. pneumoniae 60 = test: MIC determination, broth microdilution (CLSI); conditions: for MIC: Klebsiella pneumoniae, 60, strain 2
C. perfringens DSM756 = test: microbe, parasite or virus in culture; conditions: Clostridium perfringens, DSM756, read-out: MIC strain 16 (C. perfringens DSM756), strain 16; broth microdilution
P. aeruginosa PAO1 = test: MIC determination, broth microdilution (CLSI); conditions: for MIC: Pseudomonas aeruginosa, PAO1, strain 6
[2] = test system: P. aeruginosa 2297 (AmpC wt); test: MIC determination, broth microdilution (CLSI); conditions: for MIC: Pseudomonas aeruginosa, strain 7
C. freundii K21/3034 = test: MIC determination, broth microdilution (CLSI); conditions: for MIC: Citrobacter freundii, K21/3034, strain 4
A. baumannii ATCC15308 = test: MIC determination, broth microdilution (CLSI); conditions: for MIC: Acinetobacter baumannii, ATCC15308, strain 9
S. maltophilia ICB7569 = test: MIC determination, broth microdilution (CLSI); conditions: for MIC: Stenotrophomonas maltophilia, ICB7569, strain 10
S. pneumoniae 113 = test: MIC determination, broth microdilution (CLSI); conditions: Streptococcus pneumoniae, 113, strain 13; broth microdilution; read-out: MIC strain 13 (S. pneumoniae 113)
[3] = Staphylococcus aureus, 133, strain 11, read-out: strain 11 MIC
[4] = Staphylococcus aureus, 133, strain 14, broth microdilution, read-out: MIC strain 14 (S. aureus 133)

SMILES | MIC (E. coli J62-TEM-3) [µg/mL] | MIC (S. aureus 133; [3]) [µg/mL] | MIC (H. influenzae ATCC 49247) [µg/mL] | MIC strain 19 (E. coli J62-TEM-3 + 4 μg/mL clavulanic acid) (Bacteria) | MIC strain 20 (E. coli J62-TEM-3 + 4 μg/mL sulbactam) (Bacteria) | MIC strain 21 (E. coli J62-TEM-3 + 4 μg/mL tazobactam) (Bacteria) [µg/mL] | MIC (M. morganii 126/3048) [µg/mL] | MIC (B. fragilis 6688) [µg/mL] | MIC (C. perfringens DSM756) [µg/mL] | MIC (S. pneumoniae 113) [µg/mL] | MIC (E. coli J62) [µg/mL] | MIC (E. cloacae 34654) [µg/mL] | MIC (E. coli ATCC25922) [µg/mL] | MIC [1] [µg/mL] | MIC (K. pneumoniae 60) [µg/mL] | MIC (P. aeruginosa PAO1) [µg/mL] | MIC [2] [µg/mL] | MIC (C. freundii K21/3034) [µg/mL] | MIC (A. baumannii ATCC15308) [µg/mL] | MIC (S. maltophilia ICB7569) [µg/mL] | other results
CC1(C)[C@H](NC(=O)/C(=N\O[C@@H](COc2ccc(C(=N)NC3CC3N)cc2)C(=O)O)c2csc(N)n2)C(=O)N1OS(=O)(=O)O (single isomer, unassigned) [Example 100A] | 32 (≈ 49.9 µM) | ≤ 0.063 | ≤ 0.063 | 0.125 µg/mL | 0.125 µg/mL | 0.25 | ≤ 0.063 | 8 (≈ 12.5 µM) | 2 (≈ 3.12 µM) | 0.5 (≈ 0.78 µM) |  |  |  |  |  |  |  |  |  |  | MIC strain 17 (E. coli J62) (E. coli J62; strain 17): 0.25 µg/mL (≈ 0.39 µM); strain 3 MIC (E. cloacae 34654; strain 3): 0.125 µg/mL; strain 1 MIC (E. coli ATCC25922; strain 1): 0.125 µg/mL; strain 8 MIC ([1]; strain 8): 4 µg/mL; strain 2 MIC (K. pneumoniae 60; strain 2): 0.25 µg/mL; strain 6 MIC (P. aeruginosa PAO1; strain 6): 2 µg/mL; strain 7 MIC [2]: 4 µg/mL; strain 4 MIC (C. freundii K21/3034; strain 4): 0.125 µg/mL; strain 9 MIC (A. baumannii ATCC15308; strain 9): 8 µg/mL; strain 10 MIC (S. maltophilia ICB7569; strain 10): 8 µg/mL
CC1(C)[C@H](NC(=O)/C(=N\OC(COc2ccc(C(=N)NC3CCCNC3)cc2)C(=O)O)c2csc(N)n2)C(=O)N1OS(=O)(=O)O (stereo in doubt) [Example 89, (2R)-2-({[(1Z)-1-(2-Amino-1,3-thiazol-4-yl)-2-{[(3S)-2,2-dimethyl-4-oxo-1-(sulfooxy)-azetidin-3-yl]amino}-2-oxoethylidene]amino}oxy)-3-(4-{N-[(3R)-piperidin-3-yl]carbamimidoyl}phenoxy)propanoic acid] | 4 (≈ 5.98 µM) |  | ≤ 0.063 | ≦0.063 mg/L | ≦0.063 mg/L | 0.125 | ≤ 0.063 | 8 (≈ 12 µM) | 1 (≈ 1.5 µM) | 0.5 (≈ 0.748 µM) | 0.125 (≈ 0.187 µM) | 0.125 (≈ 0.187 µM) | 0.125 (≈ 0.187 µM) | 1 (≈ 1.5 µM) | 0.25 (≈ 0.374 µM) | 1 (≈ 1.5 µM) | 1 (≈ 1.5 µM) | 0.125 (≈ 0.187 µM) | 1 (≈ 1.5 µM) | 4 (≈ 5.98 µM) | MIC (S. aureus 133; [4]): 32 µg/mL (≈ 47.9 µM)
CN(C)CCNC(=N)c1ccc(OCCO/N=C(\C(=O)N[C@@H]2C(=O)N(OS(=O)(=O)O)C2(C)C)c2csc(N)n2)cc1 [Example 40, (2Z)-2-(2-Amino-1,3-thiazol-4-yl)-2-{[2-(4-{N-[2-(dimethylamino)ethyl]carbamimidoyl}phenoxy)ethoxy]imino}-N-[(3S)-2,2-dimethyl-4-oxo-1-(sulfooxy)azetidin-3-yl]ethanamide] | 8 (≈ 13.1 µM) | ≤ 0.063 | ≤ 0.063 | 0.125 µg/mL | 0.25 µg/mL | 0.25 | 0.5 (≈ 0.816 µM) | 4 (≈ 6.53 µM) | 2 (≈ 3.26 µM) | ≤ 0.063 | 0.25 (≈ 0.408 µM) | 0.5 (≈ 0.816 µM) | 0.125 (≈ 0.204 µM) | 4 (≈ 6.53 µM) | 0.25 (≈ 0.408 µM) | 4 (≈ 6.53 µM) | 8 (≈ 13.1 µM) | 0.125 (≈ 0.204 µM) | 2 (≈ 3.26 µM) | 16 (≈ 26.1 µM) | 
CC1(C)[C@H](NC(=O)/C(=N\OCCOc2ccc(C(=N)N)cc2)c2csc(N)n2)C(=O)N1OS(=O)(=O)O [Example 41, (2Z)-2-(2-Amino-1,3-thiazol-4-yl)-2-{[2-(4-carbamimidoylphenoxy)ethoxy]imino}-N-[(3S)-2,2-dimethyl-4-oxo-1-(sulfooxy)azetidin-3-yl]ethanamide] | 8 (≈ 14.8 µM) | ≤ 0.063 | ≤ 0.063 | 0.25 µg/mL | 0.25 µg/mL | 0.25 | 0.25 (≈ 0.462 µM) | 2 (≈ 3.69 µM) | 1 (≈ 1.85 µM) | ≤ 0.063 | 0.25 (≈ 0.462 µM) | 0.25 (≈ 0.462 µM) | 0.25 (≈ 0.462 µM) | 4 (≈ 7.39 µM) | 0.5 (≈ 0.923 µM) | 4 (≈ 7.39 µM) | 4 (≈ 7.39 µM) | 0.125 (≈ 0.231 µM) | 1 (≈ 1.85 µM) | 4 (≈ 7.39 µM) | MIC (S. aureus 133; [4]): 4 µg/mL (≈ 7.39 µM)
CN(C)C(=O)[C@@H]1C[C@H](NC(=N)c2ccc(OCCO/N=C(\C(=O)N[C@@H]3C(=O)N(OS(=O)(=O)O)C3(C)C)c3csc(N)n3)cc2)CN1 [Example 42, (4S)-4-{[{4-[2-({[(1Z)-1-(2-Amino-1,3-thiazol-4-yl)-2-{[(3S)-2,2-dimethyl-4-oxo-1-(sulfooxy)azetidin-3-yl]amino}-2-oxoethylidene]amino}oxy)ethoxy]phenyl}(imino)methyl]amino}-N,N-dimethyl-L-prolinamide] | 16 (≈ 23.5 µM) | ≤ 0.063 | 0.25 (≈ 0.367 µM) | 1 µg/mL | 1 µg/mL | 1 | 2 (≈ 2.93 µM) | 8 (≈ 11.7 µM) | 4 (≈ 5.87 µM) | 0.125 (≈ 0.183 µM) | 1 (≈ 1.47 µM) | 2 (≈ 2.93 µM) | 1 (≈ 1.47 µM) | 16 (≈ 23.5 µM) | 1 (≈ 1.47 µM) | 16 (≈ 23.5 µM) | 16 (≈ 23.5 µM) | 1 (≈ 1.47 µM) | 8 (≈ 11.7 µM) | 16 (≈ 23.5 µM) | MIC (S. aureus 133; [4]): 16 µg/mL (≈ 23.5 µM)
CC(=N)N1CC[C@H](NC(=N)c2ccc(OCCO/N=C(\C(=O)N[C@@H]3C(=O)N(OS(=O)(=O)O)C3(C)C)c3csc(N)n3)cc2)C1 [Example 43, (2Z)-2-(2-Amino-1,3-thiazol-4-yl)-N-[(3S)-2,2-dimethyl-4-oxo-1-(sulfooxy)azetidin-3-yl]-2-{[2-(4-{N-[(3S)-1-ethanimidoylpyrrolidin-3-yl]carbamimidoyl}phenoxy)ethoxy]-imino}ethanamide] | 8 (≈ 12.3 µM) |  | 0.125 (≈ 0.192 µM) | 0.25 µg/mL | 0.5 µg/mL | 0.5 | 1 (≈ 1.53 µM) | 8 (≈ 12.3 µM) | 2 (≈ 3.07 µM) | ≤ 0.063 | 0.5 (≈ 0.767 µM) | 1 (≈ 1.53 µM) | 0.5 (≈ 0.767 µM) | 8 (≈ 12.3 µM) | 0.5 (≈ 0.767 µM) | 8 (≈ 12.3 µM) | 8 (≈ 12.3 µM) | 0.25 (≈ 0.384 µM) | 0.5 (≈ 0.767 µM) | 32 (≈ 49.1 µM) | MIC (S. aureus 133; [4]): 4 µg/mL (≈ 6.14 µM)
CC1(C)[C@H](NC(=O)/C(=N\OCc2ccc(C(=N)N)cc2)c2csc(N)n2)C(=O)N1OS(=O)(=O)O [Example 57, (2Z)-2-(2-Amino-1,3-thiazol-4-yl)-2-{[(4-carbamimidoylbenzyl)oxy]imino}-N-[(3S)-2,2-dimethyl-4-oxo-1-(sulfooxy)azetidin-3-yl]ethanamide] | 32 (≈ 62.6 µM) | ≤ 0.063 | 0.125 (≈ 0.244 µM) | 1 µg/mL | 1 µg/mL | 2 | 1 (≈ 1.95 µM) | 1 (≈ 1.95 µM) | 2 (≈ 3.91 µM) | ≤ 0.063 | 2 (≈ 3.91 µM) | 2 (≈ 3.91 µM) | 1 (≈ 1.95 µM) | 16 (≈ 31.3 µM) | 2 (≈ 3.91 µM) | 32 (≈ 62.6 µM) | 32 (≈ 62.6 µM) | 1 (≈ 1.95 µM) | 2 (≈ 3.91 µM) | 32 (≈ 62.6 µM) | MIC (S. aureus 133; [4]): 4 µg/mL (≈ 7.82 µM)
